Assay results from patent US20080214504A1, “Vitamin B6 Related Compounds and Methods for Recovery From Trauma” (MEDICURE INTERNATIONAL INC., priority 2004, published 2008).

System: patients scheduled for elective percutaneous coronary intervention (PCI) with high-risk features for periprocedural myocardial infarction
Experiment: Randomized placebo-controlled study of P5P in patients undergoing elective PCI: recovery, length of hospitalization, time to discharge
Type: in vivo, human
Source text: Selection of Study Population—The patients selected for this trial were patients scheduled for elective percutaneous coronary intervention (PCI) with high-risk features for periprocedural myocardial infarction, and who satisfied specific inclusion criteria as described in the next section. Patients to be included in this study were of either sex, >18 years of age and admitted to hospital for elective, single-vessel, non-urgent PCI. Patients must have presented with at least one of the following high-risk clinical criteria: • ACS with last chest pain episode (or ischemic equivalent) within 48 hours, • recent myocardial infarction (≦7 days) with return of cardiac markers, (CK, CK-MB, and troponin) to below upper normal limits, • angiographic evidence of reduced epicardial flow (TIMI<3), • angiographic evidence of thrombus, • left ventricular ejection fraction≦30%, or • saphenous vein graft lesion.
The following patients were not eligible for inclusion into the study: • Those having suffered a recent myocardial infarction with elevated cardiac markers (CK-MB, troponin T), that have not returned to below upper limits or normal; • Those with electrocardiographic evidence of left bundle branch block (LBBB), ventricular paced rhythm, or atrial fibrillation; • Those with a planned multivessel PCI or PCI of known total occlusion (TIMI grade 0); • Those with evidence of ongoing or active clinical instability including; sustained systolic blood pressure<90 mmHg, cardiogenic shock, acute pulmonary edema or severe congestive heart failure, suspected acute myocarditis, pericarditis, endocarditis, cardiac tamponade, suspected dissecting aortic aneurysm, hemodynamically significant valvular heart disease, hypertrophic cardiomyopathy, restrictive cardiomyopathy, or congenital heart disease; • Any contraindication to the PCI procedure or any of the standard concomitant therapies used during routine PCI (e.g. aspirin, clopidogrel, heparin, low molecular weight heparin, direct antithrombin inhibitors, platelet glycoprotein IIb/IIIa antagonists); • Patients who were currently enrolled in a clinical trial of an investigational drug or who have participated in a clinical trial for an investigational drug (a new chemical entity not registered for clinical use) within 30 days preceding entry into the study or who are due to enter such a trial during the study period; • Patients with clinically significant abnormal laboratory findings (within 2 weeks prior to PCI) including: ALT, AST, bilirubin, or Alk Phos>1.5×ULN, Serum creatinine>1.8 mg/dL or 159 μmol/L; • Patients with any other pathology such as cancer, mental illness etc., which in the opinion of the investigator, might put the patient at risk or confound the results of the trial; • Female patients who are pregnant, breast feeding or planning a pregnancy during the course of the study; and • Patients who are unable or unwilling to comply with the protocol or who are not expected to complete the study period.
Treatments Administered—Following baseline laboratory assessments, patients were randomized to placebo or P5P (a vitamin B6 related compound), administered as a 10 mg/kg oral dose, at least (4) hours prior to PCI, followed by 10 mg/kg orally divided in two daily doses for fourteen (14) days. If PCI was delayed for more than 12 hours after initial dosing, they continued with scheduled BID dosing. If the initial loading dose was administered prior to or at 12:00 PM on day 1 of randomization, then the patient received a second evening dose. If the initial loading dose was administered following 12:00 PM, then no further dosing was administered on day 1, and the patient was to begin the next dose in the morning of day 2. If a dose was missed for more than 24 hours, patients were to continue to take the study drug as scheduled without taking supplemental doses. The date, time and dosing of the first and last study drug dosing was recorded in the CRF. […]

[1] = P5P 10 mg/kg oral, N = 37 (3 missing)

Cc1ncc(COP(=O)(O)O)c(C=O)c1O [P5P, pyridoxal-5′-phosphate]
Time in hospital relative to placebo (3.3 days versus 7.0 days for placebo): half as long
Length of hospitalization, Median (25th, 75th) (P5P 10 mg/kg oral at least 4 h prior to PCI, then 10 mg/kg/day for 14 days, N = 40): 1.0 (1.0, 3.0) days
Length of hospitalization, Mean (S.D.) (P5P 10 mg/kg oral at least 4 h prior to PCI, then 10 mg/kg/day in two daily doses for 14 days, N = 40): 3.3 (5.5) days
Time to discharge from initiation of PCI, Maximum (P5P 10 mg/kg oral, N = 37): 34.0 days
Time to discharge from initiation of PCI, Minimum (P5P 10 mg/kg oral, N = 37): 1.0 days
Time to discharge from initiation of PCI, Mean (S.D) [1]: 1.9 (5.4) days
Time to discharge from initiation of PCI, Medium (25th, 75th) [1]: 1.0 (1.0, 1.0) days
Length of hospitalization, Maximum (P5P 10 mg/kg oral, N = 40): 34.0 days
Length of hospitalization, Minimum (P5P 10 mg/kg oral, N = 40): 0.0 days
Number of days from initiation of PCI to discharge from hospital, shorter versus placebo (P5P versus placebo): 74%
Time in hospital (placebo 7.0 days): 3.3 days
